The values that follow come from patent US20240327381A1, “Compounds and Compositions for Selective Degradation of Engineered Proteins” (Celgene Corporation, priority 2023, published 2024).

Each structure is given as a SMILES string. Where only a bound is given, the exact number is not on record here.

Assay [1] concerns the target T1, Helios (Homo sapiens, UniProt Q9UKS7).
T1 construct: endogenous in cells; host or cells: Jurkat cells, CRISPR/Cas9 knock-in of HiBit at the IKZF2 locus
Briefly: Helios degradation in Jurkat/Helios/HiBit cells (Nano-Glo luminescence). The class given is cell-based. As to conditions: 18 hr, read-out: Helios Jurkat Hibit IC50. An outline of the steps: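 Jurkat cells carrying CRISPR-knocked-in C-terminal HiBit-tagged endogenous IKZF2 were treated with compound in DMEM/10% FCS (10,000 cells/well) for 18 h at 37 °C. HiBit signal was read by Nano-Glo luminescence after 30 min at RT. EC50 for degradation came from a four-parameter logistic fit, with Ymax as % protein degraded.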

The target of assay [2] is T2, IKZF1 ZNF2_ZNF3 Q1F degron-tagged CD19 CAR (Homo sapiens, UniProt Q13422, Q146F).
T2 construct: ZNF2_ZNF3 Q1F degron (GERPFFCNQCGASFTQKGNLLRHIKLHSGEKPFKCHLCNYACRRRDALTGHLRTHS); fused on or other part: anti-CD19 scFv, CD28 transmembrane domain, 4-1BB costimulatory domain, CD3 zeta signaling domain (the CAR that carries the degron), and Nluc
T2 sequence (Q13422 whole entry Q146F, the tested form may be a part): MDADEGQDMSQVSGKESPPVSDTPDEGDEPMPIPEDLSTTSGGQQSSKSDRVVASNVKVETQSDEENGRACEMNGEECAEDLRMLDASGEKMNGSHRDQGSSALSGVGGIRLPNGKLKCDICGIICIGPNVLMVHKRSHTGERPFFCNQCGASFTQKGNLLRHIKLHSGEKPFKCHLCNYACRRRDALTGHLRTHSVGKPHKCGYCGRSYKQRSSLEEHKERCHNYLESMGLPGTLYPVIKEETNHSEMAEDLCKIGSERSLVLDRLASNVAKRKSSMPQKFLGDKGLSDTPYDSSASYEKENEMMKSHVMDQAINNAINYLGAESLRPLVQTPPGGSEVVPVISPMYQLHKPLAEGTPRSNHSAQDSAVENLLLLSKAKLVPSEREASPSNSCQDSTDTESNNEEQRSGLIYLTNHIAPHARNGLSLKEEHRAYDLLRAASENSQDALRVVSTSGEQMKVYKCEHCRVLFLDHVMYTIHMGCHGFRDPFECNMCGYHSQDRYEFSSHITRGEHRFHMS
Put plainly: Degradation of Q1F degron-tagged CD19 CAR in Jurkat cells (flow cytometry of CAR levels). Conditions: for DC50: Jurkat cells expressing CD19 CAR tagged with IKZF1 ZNF2_ZNF3 Q1F, 18 hours at 37° C., CAR levels normalized to untreated cells, read-out: Q1F Jurkat IC50; for Dmax: Ymax is the % protein degraded, Jurkat cells expressing Q1F degron-tagged CD19 CAR, 18 hours, read-out: Q1F Jurkat-YMax. Format: cell-based. An outline of the steps: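 Jurkat cells were lentivirally transduced with an anti-CD19 scFv/CD28 TM/4-1BB/CD3ζ CAR tagged with an IKZF1 ZNF2_ZNF3 Q1F degron–Nluc, then treated with compound titrations for 18 h at 37 °C. CAR surface levels were stained (20 min, 4 °C), read by flow cytometry and normalised to untreated cells. EC50 came from a four-parameter logistic fit; Ymin is the minimum % CAR remaining.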
On the technique in general: Flow cytometry measures light scatter and fluorescence of single cells or particles in a stream.

T1 sequence (Q9UKS7 whole entry): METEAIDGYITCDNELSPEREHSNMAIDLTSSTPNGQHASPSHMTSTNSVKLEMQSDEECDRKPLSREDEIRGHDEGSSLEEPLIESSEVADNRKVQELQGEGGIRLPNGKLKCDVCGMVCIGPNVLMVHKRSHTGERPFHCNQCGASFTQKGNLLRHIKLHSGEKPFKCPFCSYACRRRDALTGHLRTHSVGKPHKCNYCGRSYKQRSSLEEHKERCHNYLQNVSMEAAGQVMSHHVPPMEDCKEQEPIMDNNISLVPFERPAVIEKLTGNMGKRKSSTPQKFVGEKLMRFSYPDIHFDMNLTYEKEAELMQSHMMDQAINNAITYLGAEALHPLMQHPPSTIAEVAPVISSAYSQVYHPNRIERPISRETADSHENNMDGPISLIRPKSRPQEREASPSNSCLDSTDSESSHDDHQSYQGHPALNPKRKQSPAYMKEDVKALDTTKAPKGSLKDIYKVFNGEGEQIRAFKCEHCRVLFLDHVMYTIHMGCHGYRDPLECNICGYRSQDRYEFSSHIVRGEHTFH
T1 sequence (Q96SW2 whole entry, further chain): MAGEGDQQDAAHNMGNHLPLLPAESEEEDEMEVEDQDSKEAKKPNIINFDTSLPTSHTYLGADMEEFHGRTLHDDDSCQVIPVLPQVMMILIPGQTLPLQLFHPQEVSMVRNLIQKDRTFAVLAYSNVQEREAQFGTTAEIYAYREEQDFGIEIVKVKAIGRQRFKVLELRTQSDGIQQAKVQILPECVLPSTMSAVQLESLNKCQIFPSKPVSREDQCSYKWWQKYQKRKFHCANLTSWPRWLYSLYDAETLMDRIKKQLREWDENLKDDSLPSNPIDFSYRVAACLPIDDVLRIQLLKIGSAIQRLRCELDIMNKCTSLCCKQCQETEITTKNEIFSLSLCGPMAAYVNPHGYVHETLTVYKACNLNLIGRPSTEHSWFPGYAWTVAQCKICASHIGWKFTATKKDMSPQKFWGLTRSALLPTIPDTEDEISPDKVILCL
T1 sequence (Q16531 whole entry partner): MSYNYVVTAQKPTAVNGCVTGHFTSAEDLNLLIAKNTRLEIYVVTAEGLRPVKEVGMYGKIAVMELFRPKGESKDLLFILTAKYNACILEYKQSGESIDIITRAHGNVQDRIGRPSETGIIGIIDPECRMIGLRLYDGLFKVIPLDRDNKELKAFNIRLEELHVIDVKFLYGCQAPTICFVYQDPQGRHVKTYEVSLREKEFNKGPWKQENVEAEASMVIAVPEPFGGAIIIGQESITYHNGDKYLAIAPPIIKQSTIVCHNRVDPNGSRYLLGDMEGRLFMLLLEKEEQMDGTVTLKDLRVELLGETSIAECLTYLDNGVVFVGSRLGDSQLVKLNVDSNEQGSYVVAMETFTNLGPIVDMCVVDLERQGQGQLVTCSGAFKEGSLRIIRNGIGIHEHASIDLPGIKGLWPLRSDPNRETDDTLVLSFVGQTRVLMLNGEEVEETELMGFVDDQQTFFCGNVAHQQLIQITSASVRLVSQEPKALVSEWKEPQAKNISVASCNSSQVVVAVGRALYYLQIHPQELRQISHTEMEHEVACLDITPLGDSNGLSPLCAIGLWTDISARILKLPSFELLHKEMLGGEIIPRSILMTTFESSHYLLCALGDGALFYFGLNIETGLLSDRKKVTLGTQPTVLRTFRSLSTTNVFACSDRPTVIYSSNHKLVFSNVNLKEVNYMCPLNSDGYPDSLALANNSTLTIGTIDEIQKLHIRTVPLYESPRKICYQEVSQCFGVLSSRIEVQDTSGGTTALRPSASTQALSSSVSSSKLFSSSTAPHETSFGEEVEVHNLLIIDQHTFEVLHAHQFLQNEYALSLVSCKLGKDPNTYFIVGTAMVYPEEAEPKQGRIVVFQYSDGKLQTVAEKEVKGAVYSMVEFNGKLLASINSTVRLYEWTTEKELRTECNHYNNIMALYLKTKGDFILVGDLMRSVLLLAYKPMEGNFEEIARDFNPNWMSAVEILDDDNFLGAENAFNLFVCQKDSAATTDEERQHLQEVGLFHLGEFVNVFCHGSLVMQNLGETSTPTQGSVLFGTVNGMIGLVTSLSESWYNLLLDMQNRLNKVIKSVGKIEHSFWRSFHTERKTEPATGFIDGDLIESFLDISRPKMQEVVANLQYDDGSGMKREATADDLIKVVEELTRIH

For the compound `CC(=O)Nc1ccc(CN2CCC(c3c(F)cc4c(c3F)CN(C3CCC(=O)NC3=O)C4=O)CC2)cc1` (stereo not drawn) [Compound 101, N-(4-((4-(2-(2,6-dioxopiperidin-3-yl)-4,6-difluoro-1-oxoisoindolin-5-yl)piperidin-1-yl)methyl)phenyl)acetamide], the DC50 in assay [1] was at least 10000 nM. In assay [2], the DC50 came to 0.473 nM and the Dmax is 86.9%.

Turning to `O=C1CCC(N2Cc3c(cc(F)c(C4(O)CCN(Cc5ccc6ncsc6c5)CC4)c3F)C2=O)C(=O)N1` (stereo not drawn) [Compound 12], the DC50 is at least 10000 nM in assay [1] and 4.33 nM in assay [2]. Besides, the Dmax in assay [2] amounted to 83.4%.

In the case of `CN1CCC(N2CCC(c3c(F)cc4c(c3F)CN(C3CCC(=O)NC3=O)C4=O)CC2)CC1` (stereo not drawn) [Compound 125, 3-(4,6-difluoro-5-(1′-methyl-[1,4′-bipiperidin]-4-yl)-1-oxoisoindolin-2-yl)piperidine-2,6-dione], the DC50 is at least 10000 nM in assay [1] and 22.1 nM in assay [2]. In addition, the Dmax in assay [2] was found to be 80.1%.

For `CS(=O)(=O)c1ccc(CN2CCC(c3c(F)cc4c(c3F)CN(C3CCC(=O)NC3=O)C4=O)CC2)cc1` (stereo not drawn) [Compound 62, 3-(4,6-difluoro-5-(1-(4-(methylsulfonyl)benzyl)piperidin-4-yl)-1-oxoisoindolin-2-yl)piperidine-2,6-dione], the DC50 in assay [1] was at least 10000 nM; in assay [2], 0.168 nM. In assay [2], the Dmax stood at 92.6%.

In the case of `CCCCN1CCC(c2c(F)cc3c(c2F)CN(C2CCC(=O)NC2=O)C3=O)CC1` (stereo not drawn) [Compound 115, 3-(5-(1-butylpiperidin-4-yl)-4,6-difluoro-1-oxoisoindolin-2-yl)piperidine-2,6-dione], the DC50 in assay [1] was at least 10000 nM. Also, in assay [2], the DC50 was 6.66 nM and the Dmax worked out at 79.7%.

For the compound `O=C1CCC(N2Cc3c(cc(F)c(C4CCN(Cc5cccc6ncsc56)CC4)c3F)C2=O)C(=O)N1` (stereo not drawn) [Compound 64, 3-(5-(1-(benzo[d]thiazol-7-ylmethyl)piperidin-4-yl)-4,6-difluoro-1-oxoisoindolin-2-yl)piperidine-2,6-dione], in assay [1], the DC50 is at least 10000 nM. Further, in assay [2], the DC50 amounted to 2.11 nM and the Dmax was 92.9%.

For `O=C1CCC(N2Cc3c(cc(F)c(C4CCN(Cc5ccsc5)CC4)c3F)C2=O)C(=O)N1` (stereo not drawn) [Compound 6, 3-(4,6-difluoro-1-oxo-5-(1-(thiophen-3-ylmethyl)piperidin-4-yl)isoindolin-2-yl)piperidine-2,6-dione], the DC50 in assay [1] is at least 10000 nM. In addition, in assay [2], the DC50 amounted to 5 nM and the Dmax was 89.1%.

Consider `O=C1CCC(N2Cc3c(cc(F)c(-c4ccc5c(n4)NCCC5)c3F)C2=O)C(=O)N1` (stereo not drawn) [Compound 94, 3-(4,6-difluoro-1-oxo-5-(5,6,7,8-tetrahydro-1,8-naphthyridin-2-yl)isoindolin-2-yl) piperidine-2,6-dione], for which, in assay [1], the DC50 was at least 10000 nM. Besides, in assay [2], the DC50 came to 655 nM and the Dmax turned out to be 60.9%.

On to `O=C1CCC(N2Cc3c(cc(F)c(C4(O)CCN(Cc5ccc6cn[nH]c6c5)CC4)c3F)C2=O)C(=O)N1` (stereo not drawn) [Compound 42, 3-[4,6-difluoro-5-[4-hydroxy-1-(1H-indazol-6-ylmethyl)-4-piperidyl]-1-oxo-isoindolin-2-yl]piperidine-2,6-dione], for which the DC50 in assay [1] was at least 10000 nM; in assay [2] it was 4.39 nM. The Dmax in assay [2] was found to be 87.7%.

For `Cc1ccc(CN2CCC(O)(c3c(F)cc4c(c3F)CN(C3CCC(=O)NC3=O)C4=O)CC2)cc1F` (stereo not drawn) [Compound 28, 3-(4,6-difluoro-5-(1-(3-fluoro-4-methylbenzyl)-4-hydroxypiperidin-4-yl)-1-oxoisoindolin-2-yl)piperidine-2,6-dione], in assay [1], the DC50 is at least 10000 nM. Moreover, in assay [2], the DC50 was 4.78 nM and the Dmax is 79.4%.

For the compound `CN(C)c1ccc(CN2CCC(c3c(F)cc4c(c3F)CN(C3CCC(=O)NC3=O)C4=O)CC2)cc1` (stereo not drawn) [Compound 110, 3-(5-(1-(4-(dimethylamino)benzyl)piperidin-4-yl)-4,6-difluoro-1-oxoisoindolin-2-yl)piperidine-2,6-dione], the DC50 was at least 10000 nM in assay [1] and 1.12 nM in assay [2]. Also, the Dmax in assay [2] was 90.5%.

`CS(=O)(=O)Nc1cccc(CN2CCC(c3c(F)cc4c(c3F)CN(C3CCC(=O)NC3=O)C4=O)CC2)c1` (stereo not drawn) [Compound 109, N-(3-((4-(2-(2,6-dioxopiperidin-3-yl)-4,6-difluoro-1-oxoisoindolin-5-yl)piperidin-1-yl)methyl)phenyl) methanesulfonamide]: the DC50 in assay [1] was at least 10000 nM. In addition, in assay [2], the DC50 was determined as 2.28 nM and the Dmax stood at 91.5%.

As to `O=C1CCC(N2Cc3c(cc(F)c(C4CCN(Cc5ccc6scnc6c5)CC4)c3F)C2=O)C(=O)N1` (stereo not drawn) [Compound 54, 3-(5-(1-(benzo[d]thiazol-5-ylmethyl)piperidin-4-yl)-4,6-difluoro-1-oxoisoindolin-2-yl)piperidine-2,6-dione], in assay [1], the DC50 is at least 10000 nM. Further, in assay [2], the DC50 worked out at 0.114 nM and the Dmax was determined as 93.3%.

In the case of `Cc1ccc(CN2CCC(O)(c3c(F)cc4c(c3F)CN(C3CCC(=O)NC3=O)C4=O)CC2)cc1C` (stereo not drawn) [Compound 43, 3-[5-[1-[(3,4-dimethylphenyl)methyl]-4-hydroxy-4-piperidyl]-4,6-difluoro-1-oxo-isoindolin-2-yl]piperidine-2,6-dione], the DC50 in assay [1] is at least 10000 nM. In assay [2], the DC50 is 2.75 nM and the Dmax is 80.2%.

Turning to `O=C1CCC(N2Cc3c(cc(F)c(C4(O)CCN(Cc5ccc(C(F)(F)F)cc5Br)CC4)c3F)C2=O)C(=O)N1` (stereo not drawn) [Compound 31, 3-(5-(1-(2-bromo-4-(trifluoromethyl)benzyl)-4-hydroxypiperidin-4-yl)-4,6-difluoro-1-oxoisoindolin-2-yl)piperidine-2,6-dione], in assay [1], the DC50 was at least 10000 nM. Also, in assay [2], the DC50 was found to be 14 nM and the Dmax was found to be 82.8%.

For `Cc1cc(Br)cnc1CN1CCCC(c2c(F)cc3c(c2F)CN(C2CCC(=O)NC2=O)C3=O)C1` (stereo not drawn) [Compound 68, 3-(5-(1-((5-bromo-3-methylpyridin-2-yl)methyl)piperidin-3-yl)-4,6-difluoro-1-oxoisoindolin-2-yl)piperidine-2,6-dione], the DC50 in assay [1] is at least 10000 nM. Besides, in assay [2], the DC50 was 50.5 nM and the Dmax was 63.5%.

Take `O=C1CCC(N2Cc3cc(C4CCN(Cc5ccc6c(c5)CCC6)CC4)c(F)cc3C2=O)C(=O)N1` (stereo not drawn) [Compound 88, 3-(5-(1-((2,3-dihydro-1H-inden-5-yl)methyl)piperidin-4-yl)-6-fluoro-1-oxoisoindolin-2-yl)piperidine-2,6-dione]: the DC50 in assay [1] is at least 10000 nM. In addition, in assay [2], the DC50 was 3.1 nM and the Dmax is 91.6%.

In the case of `O=C1CCC(N2Cc3c(cc(F)c(C4CCN(Cc5nc(C6CC6)cs5)CC4)c3F)C2=O)C(=O)N1` (stereo not drawn) [Compound 104, 3-(5-(1-((4-cyclopropylthiazol-2-yl)methyl)piperidin-4-yl)-4,6-difluoro-1-oxoisoindolin-2-yl)piperidine-2,6-dione], the DC50 was at least 10000 nM in assay [1] and 30.9 nM in assay [2]. The Dmax in assay [2] was 83.6%.

In the case of `O=C1CCC(N2Cc3c(cc(F)c(C4CCN(Cc5nc(-c6ccccc6)no5)CC4)c3F)C2=O)C(=O)N1` (stereo not drawn) [Compound 99, 3-(4,6-difluoro-1-oxo-5-(1-((3-phenyl-1,2,4-oxadiazol-5-yl)methyl)piperidin-4-yl)isoindolin-2-yl)piperidine-2,6-dione], the DC50 in assay [1] is at least 10000 nM. In assay [2], the DC50 is 369 nM and the Dmax was determined as 58.6%.
